By EC50 is commonly meant the midpoint of the concentration-response curve.

These results are taken from patent publication EP3046573B1, “AMYLIN ANALOGUES” (Zealand Pharma A/S, priority 2013, dated 2015).

Data set [1] can be described thus: Assessment of physical stability: fibril formation detected with Thioflavin T (ThT), lag-time. Format: physicochemical. Particulars: 1 mg/ml peptide, 40 µM ThT, FND = Fibrillation not detected; for Fibrillation lag time (hours) pH 4.0 (Ac): 50 mM acetate buffer pH 4.0, 96 hours at 40°C; for Fibrillation lag time (hours) pH 7.0 (His): 50 mM histidine buffer pH 7.0, 96 hours at 40°C; for Fibrillation lag time (hours) pH 7.0 (Ph): 50 mM phosphate buffer pH 7.0, 96 hours at 40°C. The procedure, abridged: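 Test peptide at 1 mg/ml with 40 µM ThT in 50 mM phosphate (pH 7.0), 50 mM histidine (pH 7.0) or 50 mM acetate (pH 4.0), in triplicate, 40° C. for 96 h. Fluorescence read every 10 min after 300 s agitation. Lag-time (h) taken as intersection of linear fits to initial stable and growth phases.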

In data set [2] the target is T1, human amylin receptor 3 (hAMYR3) consisting of hCTR2 co-expressed with human Receptor Activity Modifying Protein 3 (hRAMP3) (Homo sapiens, UniProt O60896+P30988).
T1 construct: expressed in transfected cells
T1 sequence (P30988 25-474): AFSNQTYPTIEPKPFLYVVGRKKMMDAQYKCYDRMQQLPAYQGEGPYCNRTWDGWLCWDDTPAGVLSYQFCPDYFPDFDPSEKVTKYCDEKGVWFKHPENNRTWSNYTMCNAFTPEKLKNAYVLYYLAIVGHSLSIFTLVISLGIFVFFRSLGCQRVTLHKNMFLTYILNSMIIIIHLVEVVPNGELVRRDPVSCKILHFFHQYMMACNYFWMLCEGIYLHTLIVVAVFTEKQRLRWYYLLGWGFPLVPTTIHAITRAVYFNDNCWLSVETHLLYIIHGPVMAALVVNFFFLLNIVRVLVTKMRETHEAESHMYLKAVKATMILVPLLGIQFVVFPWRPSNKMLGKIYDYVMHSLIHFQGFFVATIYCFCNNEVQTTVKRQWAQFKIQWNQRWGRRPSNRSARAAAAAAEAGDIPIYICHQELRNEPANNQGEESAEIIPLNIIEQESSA
T1 sequence (O60896 24-148 partner): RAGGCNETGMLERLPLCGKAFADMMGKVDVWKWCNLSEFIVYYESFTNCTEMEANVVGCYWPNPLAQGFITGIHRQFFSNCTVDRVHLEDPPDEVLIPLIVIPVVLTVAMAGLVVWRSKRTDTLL
Kind of data set: hAMYR3 assay: induction of cAMP (AlphaScreen cAMP Assay kit) in COS7 cells expressing hAMYR3. Format: cell-based. In a few lines:
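cAMP accumulation read by AlphaScreen in lysates of RAMP-naive COS7 cells stably transfected with hCTR2 plus hRAMP3. Cells exposed to peptide dilutions for 15 min, 37° C, with 100 µM IBMX; 4PL fitting gave EC50 and efficacy relative to pramlintide.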

A further data set relates to Sprague Dawley (SD) rats. Kind of data set: Acute food intake and body weight in normal Sprague Dawley rats. The note with it: vehicle-corrected, dose 30 nmol/kg sc, once; for Body weight loss (%) after 96 hours: mean ± SEM, n = 8. Format: in vivo. The protocol:
Sprague Dawley (SD) rats were obtained from Taconic A/S, Denmark. The animals arrived at least 7 days before the study start to allow acclimatization to experimental conditions. From arrival and throughout the study, the rats were housed in groups of 2 (n = 2) in a light-, temperature- and humidity-controlled room (reversed 12/12 h light/dark cycle: lights turned off during day-time and on during night-time; temperature 20-22°C; relative humidity 50-80%). Animals had access ad libitum to food (Altromin™ 1324, Brogaarden A/S, Gentofte, Denmark) and water (domestic quality tap water with citric acid added to pH ∼ 3.6) during the entire study. Stratification of rats was based on body weight (BW) on a cage-by-cage basis; mean BWs per cage were used as the basis for pairing four cages together in a group (n = 8 per group). A vehicle group and positive control group were included in each set of tests. Rats were dosed subcutaneously (sc) once in the morning immediately before turning off the lights, using a body weight-corrected dose of peptide (30 nmol/kg). Dosing volume was 5 ml/kg. Food intake was recorded manually at t = 0 (pre-dose) and at t = 4, 7, 10, 24, 48, 72 and 96 hours after dosing. Body weight was measured daily.
Statistical analyses on body weight were performed using GraphPad™ Prism version 5. The measured parameters were compared using unpaired t tests. Differences were considered statistically significant at p < 0.05. Data are means ± SEM; n =8.

The mark [3] stands for this setting: cAMP induction in COS7 cells expressing hAMYR3, average of a minimum of 3 determinations, read-out: hAMY R3 EC50.

Where two headings read alike, the source gives them in different places. Numbered stars: 1 amine (or outer) side, 2 acyl side, 3 side chain; on linkers, the order of the positions; unused ones are H or OH. Bridge positions count the residues as written; N and C are the ends. Square brackets hold non-standard residues; d marks the D form. Peptide text beside a SMILES is read from it. * marks the point of attachment. C20 diacid = O=C(O)CCCCCCCCCCCCCCCCCCC(=O)*; γGlu = O=C(O)[C@H](CCC(=O)[*:2])N[*:1]; NMeI = CC[C@H](C)[C@H](NC)C(=O)O; Sar = CNCC(=O)O

In the case of `CC[C@H](C)[C@@H](C(=O)N[C@@H](CC(C)C)C(=O)N[C@@H](CO)C(=O)N[C@@H](CO)C(=O)N[C@H](C(=O)N[C@@H](CC(N)=O)C(=O)N[C@H](C(=O)NCC(=O)N[C@@H](CO)C(=O)N[C@@H](CC(N)=O)C(=O)N[C@H](C(=O)N1CCC[C@H]1C(N)=O)[C@@H](C)O)C(C)C)[C@@H](C)O)N(C)C(=O)[C@H](C)NC(=O)CN(C)C(=O)[C@H](Cc1ccccc1)NC(=O)[C@H](CC(N)=O)NC(=O)[C@H](CC(N)=O)NC(=O)[C@H](CO)NC(=O)[C@H](CO)NC(=O)[C@H](CCCNC(=N)N)NC(=O)[C@H](Cc1c[nH]cn1)NC(=O)[C@H](CC(C)C)NC(=O)[C@H](Cc1ccccc1)NC(=O)[C@H](CCC(=O)O)NC(=O)[C@H](C)NC(=O)[C@H](CC(C)C)NC(=O)[C@H](CCCNC(=N)N)NC(=O)[C@H](CCC(N)=O)NC(=O)[C@@H](NC(=O)[C@H](C)NC(=O)[C@@H]1CSSC[C@H](NC(=O)[C@H](CCCNC(=N)N)NC(=O)CC[C@H](NC(=O)CCCCCCCCCCCCCCCCCCC(=O)O)C(=O)O)C(=O)N[C@@H](CC(N)=O)C(=O)N[C@@H]([C@@H](C)O)C(=O)N[C@@H](C)C(=O)N[C@@H]([C@@H](C)O)C(=O)N1)[C@@H](C)O` [Compound 18, [19CD]-isoGlu-RC()NTATC()ATQRLAEFLHRSSNNF-Gly(Me)-A-Ile(Me)-LSSTNVGSNTP-NH2] ({C20 diacid-γGlu}-RCNTATCATQRLAEFLHRSSNNF[Sar]A[NMeI]LSSTNVGSNTP-NH2; disulfide 2-7), in data set [1], the “Fibrillation lag time (hours) pH 4.0 (Ac)” value (shortened to “Fibrillation lag time … (Ac)”) is listed as 20 hours, the “Fibrillation lag time (hours) pH 7.0 (His)” value (from here on “Fibrillation lag time … (His)”) is given as 33 hours and the “Fibrillation lag time (hours) pH 7.0 (Ph)” value (from here on “Fibrillation lag time … (Ph)”) is 33 hours. In addition, in data set [2], the EC50 was 0.17 nM. Also, in the data set on Sprague Dawley (SD) rats, the “Food intake inhibition (%) after 48 hours” value (“Food intake inhibition (%)” for short) was 98% and the “Body weight loss (%) after 96 hours” value came out at 13 ± 0.8%.
With `CC[C@H](C)[C@@H](C(=O)N[C@@H](CC(C)C)C(=O)N[C@H](CO)C(=O)N[C@@H](CO)C(=O)N[C@H](C(=O)N[C@@H](CC(N)=O)C(=O)N[C@H](C(=O)NCC(=O)N[C@@H](CO)C(=O)N[C@@H](CC(N)=O)C(=O)N[C@H](C(=O)N1CCC[C@H]1C(N)=O)[C@@H](C)O)C(C)C)[C@@H](C)O)N(C)C(=O)[C@H](C)NC(=O)CN(C)C(=O)[C@@H](Cc1ccccc1)NC(=O)[C@H](CC(N)=O)NC(=O)[C@H](CC(N)=O)NC(=O)[C@H](CO)NC(=O)[C@H](CO)NC(=O)[C@H](CCCNC(=N)N)NC(=O)[C@H](Cc1c[nH]cn1)NC(=O)[C@H](CC(C)C)NC(=O)[C@H](Cc1ccccc1)NC(=O)[C@H](CCC(=O)O)NC(=O)[C@H](C)NC(=O)[C@H](CC(C)C)NC(=O)[C@H](CCCNC(=N)N)NC(=O)[C@H](CCC(N)=O)NC(=O)[C@@H](NC(=O)[C@H](C)NC(=O)[C@@H]1CSSC[C@H](NC(=O)[C@H](CCCCN)NC(=O)CC[C@H](NC(=O)CCCCCCCCCCCCCCCCCCC(=O)O)C(=O)O)C(=O)N[C@@H](CC(N)=O)C(=O)N[C@@H]([C@@H](C)O)C(=O)N[C@@H](C)C(=O)N[C@@H]([C@@H](C)O)C(=O)N1)[C@@H](C)O` [Compound 72, [19CD]-isoGlu-KC()NTATC()ATQRLAEFLHRSSNN-DPhe-Gly(Me)-A-Ile(Me)-L-DSer-STNVGSNTP] ({C20 diacid-γGlu}-KCNTATCATQRLAEFLHRSSNN[dF][Sar]A[NMeI]L[dS]STNVGSNTP-NH2; disulfide 2-7), in data set [1], the “Fibrillation lag time … (Ac)” value is on record as “FND”, the “Fibrillation lag time … (His)” value is on record as “FND” and the “Fibrillation lag time … (Ph)” value was “FND”. In data set [2], a half-maximal response (EC50) required 0.098 nM. Moreover, in the data set with Sprague Dawley (SD) rats, the “Food intake inhibition (%)” value came out at 99% and the “Body weight loss (%) after 96 hours” value is 12 ± 1.2%.
As for `CC[C@H](C)[C@@H](C(=O)N[C@@H](CC(C)C)C(=O)N[C@@H](CO)C(=O)N[C@@H](CO)C(=O)N[C@H](C(=O)N[C@@H](CC(=O)O)C(=O)N[C@H](C(=O)NCC(=O)N[C@@H](CO)C(=O)N[C@@H](CC(=O)O)C(=O)N[C@H](C(=O)N1CCC[C@H]1C(N)=O)[C@@H](C)O)C(C)C)[C@@H](C)O)N(C)C(=O)[C@H](C)NC(=O)CN(C)C(=O)[C@H](Cc1ccccc1)NC(=O)[C@H](CO)NC(=O)[C@H](CO)NC(=O)[C@H](CO)NC(=O)[C@H](CO)NC(=O)[C@H](CCCNC(=N)N)NC(=O)[C@H](Cc1c[nH]cn1)NC(=O)[C@H](CC(C)C)NC(=O)[C@H](Cc1ccccc1)NC(=O)[C@H](CCC(=O)O)NC(=O)[C@H](C)NC(=O)[C@H](CC(C)C)NC(=O)[C@H](CCCNC(=N)N)NC(=O)[C@H](CCC(N)=O)NC(=O)[C@@H](NC(=O)[C@H](C)NC(=O)[C@@H]1CSSC[C@H](NC(=O)[C@H](CCCNC(=N)N)NC(=O)CC[C@H](NC(=O)CCCCCCCCCCCCCCCCCCC(=O)O)C(=O)O)C(=O)N[C@@H](CC(N)=O)C(=O)N[C@@H]([C@@H](C)O)C(=O)N[C@@H](C)C(=O)N[C@@H]([C@@H](C)O)C(=O)N1)[C@@H](C)O` [Compound 73, [19CD]-isoGlu-RC()NTATC()ATQRLAEFLHRSSSSF-Gly(Me)-A-Ile(Me)-LSSTDVGSDTP-NH2] ({C20 diacid-γGlu}-RCNTATCATQRLAEFLHRSSSSF[Sar]A[NMeI]LSSTDVGSDTP-NH2; disulfide 2-7), in data set [1], the “Fibrillation lag time … (Ac)” value was “FND”, the “Fibrillation lag time … (His)” value is “FND” and the “Fibrillation lag time … (Ph)” value was “FND”. Also, in data set [2] (setting [3]), the EC50 came out at 0.14 nM. Besides, in the data set on Sprague Dawley (SD) rats, the “Food intake inhibition (%)” value stood at 93% and the “Body weight loss (%) after 96 hours” value worked out at 11 ± 1.8%.
In the case of `CC[C@H](C)[C@@H](C(=O)N[C@@H](CC(C)C)C(=O)N[C@@H](CO)C(=O)N[C@@H](CO)C(=O)N[C@H](C(=O)N[C@@H](CCC(=O)O)C(=O)N[C@H](C(=O)NCC(=O)N[C@@H](CO)C(=O)N[C@@H](CCC(=O)O)C(=O)N[C@H](C(=O)N1CCC[C@H]1C(N)=O)[C@@H](C)O)C(C)C)[C@@H](C)O)N(C)C(=O)[C@H](C)NC(=O)CN(C)C(=O)[C@H](Cc1ccccc1)NC(=O)[C@H](CO)NC(=O)[C@H](CO)NC(=O)[C@H](CO)NC(=O)[C@H](CO)NC(=O)[C@H](CCCNC(=N)N)NC(=O)[C@H](Cc1c[nH]cn1)NC(=O)[C@H](CC(C)C)NC(=O)[C@H](Cc1ccccc1)NC(=O)[C@H](CCC(=O)O)NC(=O)[C@H](C)NC(=O)[C@H](CC(C)C)NC(=O)[C@H](CCCNC(=N)N)NC(=O)[C@H](CCC(N)=O)NC(=O)[C@@H](NC(=O)[C@H](C)NC(=O)[C@@H]1CSSC[C@H](NC(=O)[C@H](CCCNC(=N)N)NC(=O)CC[C@H](NC(=O)CCCCCCCCCCCCCCCCCCC(=O)O)C(=O)O)C(=O)N[C@@H](CC(N)=O)C(=O)N[C@@H]([C@@H](C)O)C(=O)N[C@@H](C)C(=O)N[C@@H]([C@@H](C)O)C(=O)N1)[C@@H](C)O` [Compound 76, [19CD]-isoGlu-RC()NTATC()ATQRLAEFLHRSSSSF-Gly(Me)-A-Ile(Me)-LSSTEVGSETP-NH2] ({C20 diacid-γGlu}-RCNTATCATQRLAEFLHRSSSSF[Sar]A[NMeI]LSSTEVGSETP-NH2; disulfide 2-7), in data set [1], the “Fibrillation lag time … (Ac)” value is reported as “FND”, the “Fibrillation lag time … (His)” value is given as “FND” and the “Fibrillation lag time … (Ph)” value was “FND”. The EC50 in data set [2] (setting [3]) stood at 0.24 nM. In addition, in the data set with Sprague Dawley (SD) rats, the “Food intake inhibition (%)” value came out at 100% and the “Body weight loss (%) after 96 hours” value came out at 11 ± 1.2%.
